Results: article PMC9785777, “Antidiabetic Potential of Novel 1,3,5-Trisubstituted-2-Thioxoimidazloidin-4-One Analogues: Insights into α-Glucosidase, α-Amylase, and Antioxidant Activities” (Pharmaceuticals, 2022)
≈ marks a conversion by molar mass, not a printed value. Where “and” joins values, the source holds several entries; their conditions need not be identical. Equal values may be shown once.

Columns and labels:
[1] = system: human lung fibroblast WI-38 cell line; experiment: MTT cytotoxicity assay against WI-38 cells; assay type: cell-based; conditions: MTT, 48 h
Experimental: (§1) Based on the promising dual inhibitory activity of this class of compounds, we next evaluated the cytotoxicity of compounds 5a and 7a against human lung fibroblast cell line WI-38 in order to gain insights into the toxicity of this class of compounds utilizing the MTT assay. In this regard, lung fibroblast cells were cultured and treated with compounds 5a and 7a for 48 h at different concentrations (1000, 250, 63, 16, and 4 µg/mL). After the cells were washed, they were treated with MTT solution and the absorption was assessed using an ELISA reader at 570 nm. As a pharmacological reference drug, Celecoxib, a well-known anti-inflammatory agent, was utilized.
(§2) The cytotoxicity of compounds 5a and 7a was assessed toward the human lung fibroblast WI-38 cell line (Sigma-Aldrich, St. Louis, MO, USA, product number 90020107) using MTT assay. The MTT test assay was performed in accordance with the previously stated procedure. MTT (3-(4,5-dimethylthiazol-2-yl)-2,5-diphenyl tetrazolium bromide; Sigma catalog no. M2128) was dissolved in PBS at 5 mg/mL and processed to eliminate the insoluble residues. Briefly, cells (10^5 cells/well) were treated for 48 h at 37 °C with compounds 5a and 7a at varied doses (1000, 250, 63, 16, and 4 µg/mL, DMSO stock solutions) in a 5% CO2 atmosphere. In our assessment, celecoxib, an inhibitor of cyclooxygenase 2, was employed as a standard reference drug. Following cell washing, MTT solution (180 µL/well) was applied to the cells and incubated at 37 °C for 4 h with shaking, and the absorbance was measured using an ELISA reader at 570 nm.

[2] = MTT cytotoxicity assay against WI-38 cells; assay type: cell-based, human; conditions: human, WI-38 lung fibroblast cells
Experimental: as §1, §2

[3] = ROS-generation assay (H2O2 generated with DTT, HRP-phenol red, 610 nm); conditions: 50 µM compound, incubated with DTT; control 90.74±5.54
Excerpt: The […] metabolites and enzymes (such as NADPH oxidase, lipoxygenase, and cytochrome P450) act together to mediate the production of ROS and diminish the counteractive oxidative damage. ROS can cause damage to DNA, lipid, proteins, and nucleic acids and the destruction of cell components leading to cell death. Toward this end, we aimed to investigate whether the mode of action of this class of compounds involved the generation of ROS. ROS-producing compounds upon reaction with a reducing agent in the presence of oxygen afford superoxide O^•−2 radical and hydrogen peroxide (H2O2) which could be quantitively estimated. Thus, compounds 5a and 7a (at 50 µM concentration) were incubated with the reducing agent dithiothreitol (DTT) and the generated H2O2 was subsequently assessed by monitoring the oxidation of phenol red in the presence of horseradish peroxidase (HRP) at the absorbance of 610 nm. We first examined the validity of the assay by examining the activity of a known ROS-producing standard drug. In our study, Celecoxib was utilized as a reference pharmacological ROS-generating drug. […] Next, we evaluated the potency of compounds 5a and 7a to produce ROS at a 50 µM concentration.
According to Nasiri et al., the antioxidant activity of compounds (5a, 7a) and Celecoxib was measured by an evaluation of ROS-generation using ELISA analysis. Three different solutions were prepared for the in vitro assessment of ROS-generation: phenol red, sodium hydroxide solution, and DTT. All reagents were provided by Sigma-Aldrich. A stock solution of DTT (20 mM) was prepared by dissolving […] of DTT in 500 µL of Hank’s Balanced Salt Solution (HBSS), and the obtained solution was preserved at −20 °C. The stock solution was further diluted with HBSS to 0.8 mM for each measurement. The HRP-PR solution was prepared by dissolving 1.8 mg of horseradish peroxidase (HRP) and 3 mg of phenol red (PR) in 10 mL of HBSS. […] After incubation, 1N NaOH was applied, and the absorbance at 610 nm was measured using a plate reader spectrometer. […]

[4] = system: INS-1 cells; parameters: method as in PMID 10918947; conditions: 10 µg/mL, in the presence of 5.6 mmol/L glucose ref 36; cited from earlier work
[5] = target: α-glucosidase; conditions: cited from earlier work
[6] = target: α-amylase; conditions: cited from earlier work

Cc1ccc(-c2cc(C(F)(F)F)nn2-c2ccc(S(N)(=O)=O)cc2)cc1 [Celecoxib, reference compound]
WI-38 cytotoxicity IC50 [1]: 93.054 µg/mL | viability at 48 h, 4 µg/mL ([2]; 4 µg/mL (log conc. 0.602)): 67.3% | viability at 48 h, 16 µg/mL ([2]; 16 µg/mL (log conc. 1.204)): 61.7% | viability at 48 h, 63 µg/mL ([2]; 63 µg/mL (log conc. 1.799)): 54.2% | viability at 48 h, 250 µg/mL ([2]; 250 µg/mL (log conc. 2.398)): 43% | viability at 48 h, 1000 µg/mL ([2]; 1000 µg/mL (log conc. 3)): 35.4% | IC50 at 48 h ([2]; MTT): 93 µg/mL (≈ 244 µM) | ROS produced (generated H2O2) [3]: 171.6 pg/mL and 171.6 ± 1.89 pg/mL

CN1C(=O)/C(=C/c2ccc(-c3cc(=O)c4ccccc4o3)cc2)N(C)C1=S [Compound 9]
increase of insulin release as compared to control [4]: 40%

O=C1CNC(=S)N1C(=O)c1cc([N+](=O)[O-])cc([N+](=O)[O-])c1 [Compound 3j]
IC50 ([5]; read-out: IC50 toward α-glucosidase enzyme): 51 µM | IC50 ([6]; read-out: IC50 toward α-amylase enzyme): 8.2 µM

O=C1CNC(=S)N1 [unsubstituted-2-thiohydantoin, 2-thiohydantoin]
IC50 toward α-glucosidase activity [5]: 356.22 µg/mL (≈ 3070 µM) | IC50 toward α-amylase activity [6]: 410.35 µg/mL (≈ 3530 µM)
